Results: ChEMBL document CHEMBL4138123, “Design, synthesis and biological evaluation of novel pyrazolochalcones as potential modulators of PI3K/Akt/mTOR pathway and inducers of apoptosis in breast cancer cells” (Eur J Med Chem, 2017)

Experiments:
Assay type in all cases: functional
M14 = assay: Cytotoxicity against human M14 cells assessed as growth inhibition after 48 hrs by sulforhodamine B assay; conditions: M14, 48 h
PC-3 = assay: Cytotoxicity against human PC3 cells assessed as cell growth at 100 uM after 48 hrs by sulforhodamine B assay relative to control; conditions: PC-3, 48 h, read-out: Activity
786-0 = assay: Cytotoxicity against human 786-0 cells assessed as cell growth at 0.1 uM after 48 hrs by sulforhodamine B assay relative to control; conditions: 786-0, 48 h, read-out: Activity
A498 [1] = assay: Cytotoxicity against human A498 cells assessed as cell growth at 1 uM after 48 hrs by sulforhodamine B assay relative to control; conditions: A498, 48 h, read-out: Activity
SK-MEL-5 = assay: Cytotoxicity against human SK-MEL-5 cells assessed as cell growth at 1 uM after 48 hrs by sulforhodamine B assay relative to control; conditions: SK-MEL-5, 48 h, read-out: Activity
A549 = assay: Cytotoxicity against human A549/ATCC cells assessed as cell growth at 0.01 uM after 48 hrs by sulforhodamine B assay relative to control; conditions: A549, 48 h, read-out: Activity
Malme-3M = assay: Cytotoxicity against human MALME-3M cells assessed as cell growth at 10 uM after 48 hrs by sulforhodamine B assay relative to control; conditions: read-out: Activity
SK-MEL-28 = assay: Cytotoxicity against human SK-MEL-28 cells assessed as cell growth at 1 uM after 48 hrs by sulforhodamine B assay relative to control; conditions: SK-MEL-28, 48 h, read-out: Activity
KM12 = assay: Cytotoxicity against human KM12 cells assessed as growth inhibition after 48 hrs by sulforhodamine B assay; conditions: KM12, 48 h
CCRF-CEM = assay: Cytotoxicity against human CCRF-CEM cells assessed as cell growth at 10 uM after 48 hrs by sulforhodamine B assay relative to control; conditions: read-out: Activity
NCI-H522 [2] = assay: Cytotoxicity against human NCI-H522 cells assessed as cell growth at 10 uM after 48 hrs by sulforhodamine B assay relative to control; conditions: NCI-H522, 48 h, read-out: Activity
NCI-H522 [3] = assay: Cytotoxicity against human NCI-H522 cells assessed as cell growth at 0.1 uM after 48 hrs by sulforhodamine B assay relative to control; conditions: NCI-H522, 48 h, read-out: Activity
ACHN = assay: Cytotoxicity against human ACHN cells assessed as cell growth at 0.1 uM after 48 hrs by sulforhodamine B assay relative to control; conditions: read-out: Activity
HL-60(TB) = assay: Cytotoxicity against human HL-60(TB) cells assessed as growth inhibition after 48 hrs by sulforhodamine B assay; conditions: HL-60, 48 h
TK-10 [4] = assay: Cytotoxicity against human TK10 cells assessed as growth inhibition after 48 hrs by sulforhodamine B assay; conditions: TK-10, 48 h
OVCAR-3 = assay: Cytotoxicity against human OVCAR3 cells assessed as growth inhibition after 48 hrs by sulforhodamine B assay; conditions: OVCAR-3, 48 h
UO-31 = assay: Cytotoxicity against human UO31 cells assessed as cell growth at 100 uM after 48 hrs by sulforhodamine B assay relative to control; conditions: UO-31, 48 h, read-out: Activity
NCI-H322M = assay: Cytotoxicity against human NCI-H322M cells assessed as cell growth at 0.01 uM after 48 hrs by sulforhodamine B assay relative to control; conditions: read-out: Activity
MDA-MB-435 [5] = assay: Cytotoxicity against human MDA-MB-435 cells assessed as cell growth at 0.01 uM after 48 hrs by sulforhodamine B assay relative to control; conditions: MDA-MB-435, 48 h, read-out: Activity
TK-10 [6] = assay: Cytotoxicity against human TK10 cells assessed as cell growth at 0.01 uM after 48 hrs by sulforhodamine B assay relative to control; conditions: TK-10, 48 h, read-out: Activity
A498 [7] = assay: Cytotoxicity against human A498 cells assessed as cell growth at 0.01 uM after 48 hrs by sulforhodamine B assay relative to control; conditions: A498, 48 h, read-out: Activity
HCT-15 = assay: Cytotoxicity against human HCT15 cells assessed as cell growth at 0.1 uM after 48 hrs by sulforhodamine B assay relative to control; conditions: HCT-15, 48 h, read-out: Activity
NCI-H226 [8] = assay: Cytotoxicity against human NCI-H226 cells assessed as cell growth at 0.1 uM after 48 hrs by sulforhodamine B assay relative to control; conditions: NCI-H226, 48 h, read-out: Activity
SF-539 = assay: Cytotoxicity against human SF539 cells assessed as growth inhibition after 48 hrs by sulforhodamine B assay; conditions: SF-539, 48 h
NCI-H226 [9] = assay: Cytotoxicity against human NCI-H226 cells assessed as cell growth at 10 uM after 48 hrs by sulforhodamine B assay relative to control; conditions: NCI-H226, 48 h, read-out: Activity
NCI-H460 = assay: Cytotoxicity against human NCI-H460 cells assessed as cell growth at 1 uM after 48 hrs by sulforhodamine B assay relative to control; conditions: NCI-H460, 48 h, read-out: Activity
MDA-MB-435 [10] = assay: Cytotoxicity against human MDA-MB-435 cells assessed as cell growth at 1 uM after 48 hrs by sulforhodamine B assay relative to control; conditions: MDA-MB-435, 48 h, read-out: Activity
K562 = assay: Cytotoxicity against human K562 cells assessed as cell growth at 0.01 uM after 48 hrs by sulforhodamine B assay relative to control; conditions: K562, 48 h, read-out: Activity
UACC-257 = assay: Cytotoxicity against human UACC257 cells assessed as cell growth at 0.1 uM after 48 hrs by sulforhodamine B assay relative to control; conditions: UACC-257, 48 h, read-out: Activity
SF-268 = assay: Cytotoxicity against human SF268 cells assessed as cell growth at 0.01 uM after 48 hrs by sulforhodamine B assay relative to control; conditions: SF-268, 48 h, read-out: Activity
T47D = assay: Cytotoxicity against human T47D cells assessed as cell growth at 0.01 uM after 48 hrs by sulforhodamine B assay relative to control; conditions: read-out: Activity
UACC-62 = assay: Cytotoxicity against human UACC62 cells assessed as growth inhibition after 48 hrs by sulforhodamine B assay; conditions: UACC-62, 48 h
OVCAR-8 = assay: Cytotoxicity against human OVCAR8 cells assessed as cell growth at 0.01 uM after 48 hrs by sulforhodamine B assay relative to control; conditions: OVCAR-8, 48 h, read-out: Activity
NCI-H226 [11] = assay: Cytotoxicity against human NCI-H226 cells assessed as cell growth at 100 uM after 48 hrs by sulforhodamine B assay relative to control; conditions: NCI-H226, 48 h, read-out: Activity
DU-145 = assay: Cytotoxicity against human DU145 cells assessed as cell growth at 0.01 uM after 48 hrs by sulforhodamine B assay relative to control; conditions: DU-145, 48 h, read-out: Activity

## COc1cc(-c2cc(/C=C/C(=O)c3ccc(N)cc3)[nH]n2)cc(OC)c1OC
M14
  GI50: 1.83 µM
  LC50 (concentration killing 50% of cells): 8.17 µM
  TGI: 3.86 µM
PC-3
  growth at 100 µM: -39%
786-0
  growth at 0.1 µM: 94%
A498 [1]
  growth at 1 µM: 76%
SK-MEL-5
  growth at 1 µM: 90%
A549
  growth at 0.01 µM: 96%
Malme-3M
  growth at 10 µM: -45%
SK-MEL-28
  growth at 1 µM: 90%
KM12
  GI50: 1.41 µM
  LC50: 7.27 µM
  TGI: 2.88 µM
CCRF-CEM
  growth at 10 µM: -22%
NCI-H522 [2]
  growth at 10 µM: -51%
NCI-H522 [3]
  growth at 0.1 µM: 92%
ACHN
  growth at 0.1 µM: 97%
HL-60(TB)
  GI50: 1.74 µM
  LC50: > 100 µM
  TGI: 10.8 µM
TK-10 [4]
  GI50: 4.84 µM
  LC50: 51.6 µM
  TGI: 17.5 µM
OVCAR-3
  GI50: 1.57 µM
  LC50: 7.26 µM
  TGI: 3.37 µM
UO-31
  growth at 100 µM: -93%
NCI-H322M
  growth at 0.01 µM: 95%
MDA-MB-435 [5]
  growth at 0.01 µM: 90%
TK-10 [6]
  growth at 0.01 µM: 102%
A498 [7]
  growth at 0.01 µM: 91%
HCT-15
  growth at 0.1 µM: 94%
NCI-H226 [8]
  growth at 0.1 µM: 98%
SF-539
  GI50: 1.3 µM
  LC50 (concentration killing 50% of cells): 5.42 µM
  TGI: 2.66 µM
NCI-H226 [9]
  growth at 10 µM: -73%
NCI-H460
  growth at 1 µM: 78%
MDA-MB-435 [10]
  growth at 1 µM: 88%
K562
  growth at 0.01 µM: 100%
UACC-257
  growth at 0.1 µM: 93%
SF-268
  growth at 0.01 µM: 99%
T47D
  growth at 0.01 µM: 83%
UACC-62
  GI50: 1.7 µM
  LC50: 7.51 µM
  TGI: 3.58 µM
OVCAR-8
  growth at 0.01 µM: 100%
NCI-H226 [11]
  growth at 100 µM: -59%
DU-145
  growth at 0.01 µM: 107%
